# Measured values reported in PubChem BioAssay AID1996.
# Conditions: buffer; pH 7.4; 200.0 µM
row,Structure (SMILES),solubility kinetic
1,CCN(C(=S)NC(=O)C1CCCC1)C1CCCCC1,> 42.4 µg/mL
2,Cc1ccc(N=C(N)N=C(N)N)cc1,> 28.7 µg/mL
3,Cc1ncc(CN2CCN(C3CCCC3)C(CCO)C2)s1 (configuration not stated),36 µg/mL
4,Cc1cc(Cl)ccc1OCC(=O)Nc1ccc(CN2CCOCC2)cc1,41.3 µg/mL
5,COc1ccc(NC(=S)NCCCN2CCOCC2)cc1,> 46.4 µg/mL
6,O=C(COc1ccc2cc(Br)ccc2c1Br)N1CCOCC1,13.9 µg/mL
7,COCCn1c(SCc2ccccc2)nc2c1c(=O)[nH]c(=O)n2C,> 52 µg/mL
8,CC(C)(C)S(=O)(=O)Cc1nc(-c2ccc(Cl)c(Cl)c2)cs1,< 0.8 µg/mL
9,Cc1ccc(C)c(OCCCC(=O)NC2CCCCC2)c1,3 µg/mL
10,CC1CCCCC12NC(=O)N(Cc1cc(=O)n3ccsc3n1)C2=O (configuration not stated),> 52 µg/mL
11,COc1cc(OC)c(C(=O)OCC(=O)NC2CCCC2)cc1OC,> 50.6 µg/mL
12,O=C(c1cc(-c2ccncc2)nc2ccccc12)N1CCN(c2ncccn2)CC1,55.4 µg/mL
13,O=C(CSc1cccc(C(F)(F)F)c1)Nc1ccc(N2CCOCC2)cc1,7.7 µg/mL
14,CN1C(=S)SC(/[N+]([O-])=C/c2c(F)cccc2Cl)C1(C)C (configuration not stated),> 49.9 µg/mL
15,CCCNC(=O)c1csc(Nc2cccc3ccccc23)n1,17.8 µg/mL
16,Cc1ccc(OCCCC(=O)NC2CCCCC2)cc1,15.7 µg/mL
17,O=C(O)c1ccc(S(=O)(=O)NC2CCCCCC2)cc1,> 44.6 µg/mL
18,CC(C)c1ccc(OCC(=O)NCc2ccccc2)cc1,3.2 µg/mL
19,O=C(CN1C(=O)NC2(CCCC2)C1=O)OCc1ccccc1,21.8 µg/mL
20,CC(C)(C)c1ncc(S(=O)(=O)c2ccc(C(F)(F)F)cn2)c(N)n1,1.4 µg/mL
21,Cc1ccc(NC(=S)N(Cc2ccccc2)Cc2cccs2)c(C)c1,0.8 µg/mL
22,CC(C)c1ccc(CNc2ccc3c(c2)ncn3C)cc1,22 µg/mL
23,C/C(=C\c1cccc(Cl)c1Cl)C(=O)c1c(C)cc(C)[nH]c1=O,3.5 µg/mL
24,CSc1nc(N(C)C)nc(N(C)C#N)n1,> 33.6 µg/mL

row,Structure (SMILES),solubility kinetic
1,CC(C)c1cc(O)c(-c2ccccc2)c(=O)n1-c1ccc(Cl)cc1,< 0.7 µg/mL
2,COc1ccc(NC(=O)/C=C/C(=O)O)c([N+](=O)[O-])c1,> 39.9 µg/mL
3,CN1CCN(/N=C/c2c[nH]c3ccccc23)CC1,> 36.3 µg/mL
4,CC(C)(CNC(=O)c1cccs1)N1CCOCC1,> 40.3 µg/mL
5,CCn1ccnc1CN(C)Cc1nc(-c2cccc(Cl)c2)no1,37.8 µg/mL
6,COC(=O)c1ccc(CN2C(=O)NC3(CCC(C)CC3)C2=O)cc1 (configuration not stated),7.5 µg/mL
7,COc1ccc(C)cc1NC(=O)NCc1ccccc1F,2 µg/mL
8,CC1CCCCC12NC(=O)N(CC(=O)Nc1nccs1)C2=O (configuration not stated),> 48.4 µg/mL
9,O=c1ccnc(Nc2ccc([N+](=O)[O-])cc2)[nH]1,> 34.8 µg/mL
10,O=C(CNC(=O)c1cc(Cl)cc([N+](=O)[O-])c1)NC1CC1,> 44.7 µg/mL
11,COc1ccc(S(=O)(=O)N2CCCCCC2)cc1NC(=O)Cc1ccc(OC)c(OC)c1,22.1 µg/mL
12,CC(=O)Nc1ccc(S(=O)(=O)N2c3ccc(F)cc3CCC2C)cc1 (configuration not stated),45.9 µg/mL
13,CC1CCCN(C(=O)COC(=O)Cn2cnc3ccccc32)C1 (configuration not stated),> 47.3 µg/mL
14,O=C(Nc1ccc(NC(=O)c2cccnc2)cc1)c1ccccc1,0.8 µg/mL
15,CC(C)c1ccc(S(=O)(=O)NC2CCCC2)cc1,> 40.1 µg/mL
16,Nc1ccc(C(=O)OCc2ccncc2)cc1[N+](=O)[O-],14 µg/mL
17,CC(=O)/C(=C(/O)c1ccccc1)c1nc2ccccc2[nH]1,1.4 µg/mL
18,NC(N)=NC1=NC(=O)C(Cc2ccccc2)S1 (configuration not stated),> 37.2 µg/mL
19,CN1CCN(C(=O)CC2(CC(=O)O)CCCC2)CC1.Cl,> 45.7 µg/mL
20,CC1CCCN(Cc2ccc(OCc3ccccc3)cc2)C1 (configuration not stated),31.5 µg/mL
21,O=C(Nc1ccccc1)NC1CCCCNC1=O (configuration not stated),> 37.1 µg/mL
22,CC(C(=O)N1CCN(c2ccccc2)CC1)c1ccc([N+](=O)[O-])cc1 (configuration not stated),40.7 µg/mL
23,CC(=O)c1ccc(NC(=S)NC(=O)/C=C/c2ccco2)cc1,1.4 µg/mL
24,O=C(O)CCSC(=S)N1CCOCC1,29.3 µg/mL

row,Structure (SMILES),solubility kinetic
1,O=C(OCC(=O)N1CCCC1=O)c1cc2ccccc2o1,> 43.1 µg/mL
2,CCn1c(=O)c(C(=O)Nc2ccccc2F)c(O)c2ccccc21,0.4 µg/mL
3,COc1ccc2c(c1)C(=O)Nc1cc(Cl)ccc1N2,15.6 µg/mL
4,CC1CCCN(C2(O)C(=O)Nc3ccc(Br)cc32)C1 (configuration not stated),> 48.8 µg/mL
5,CC1(C(=O)NCCOc2ccccc2Cl)CC1(Cl)Cl (configuration not stated),> 48.4 µg/mL
6,COc1ccc(-c2nc3n(c2C)Cc2ccccc2-3)cc1,16.3 µg/mL
7,CCOc1ccc(C(=O)NCCN2CCOCC2)cc1,> 41.8 µg/mL
8,O=C(NC1CC1)C(=O)c1c[nH]c2ccccc12,> 34.2 µg/mL
9,CN(C1CCCCC1)S(=O)(=O)c1cccc2nsnc12,> 46.7 µg/mL
10,Cc1onc(-c2ccccc2Cl)c1C(=O)N(C)Cc1ccccc1,> 51.1 µg/mL
11,O=CC1=C(N2CCOCC2)/C(=C/c2ccc(Cl)cc2)CC1,32.1 µg/mL
12,CCN(CC)c1ccc(/C=C2\C(=O)NC(=S)N(c3ccc(OC)cc3OC)C2=O)o1,56 µg/mL
13,NC(=S)Nc1cc(Cl)cc(Cl)c1,33 µg/mL
14,CCCCN(C(=O)C1CCCC1)c1c(N)n(Cc2ccccc2)c(=O)[nH]c1=O,3.6 µg/mL
15,COc1cc(/C=C/C(=O)O)cc(S(=O)(=O)Nc2ccccc2C(=O)NCc2ccco2)c1OC,> 73 µg/mL
16,CCCCN(C)C(=O)c1cc2cc([N+](=O)[O-])cc(OC)c2oc1=O,> 50.1 µg/mL
17,O=S(=O)(c1c(Cl)cc(Br)cc1Cl)N1CCN(C(=S)NC2CC2)CC1,5.3 µg/mL
18,N#CCSc1nc2ccccc2c(=O)n1CCCC(=O)NCC1CCCO1 (configuration not stated),47.7 µg/mL
19,CC(=O)C(C(c1ccccc1)c1c[nH]c2ccccc12)[N+](=O)[O-] (configuration not stated),29.1 µg/mL
20,Cc1nnc(SCC(=O)NC2CC2)n1-c1ccccc1,> 43.3 µg/mL
21,COc1cc(C(=O)NC(c2ccccc2)c2ccccc2)cc(OC)c1C,< 0.8 µg/mL
22,C/C(=C\c1ccccc1)CN1CCN(C(C)C)C(CCO)C1 (configuration not stated),> 45.4 µg/mL
23,O=C1CN(C(=O)COc2ccccc2)c2ccccc2N1,> 42.3 µg/mL
24,Cc1ccc2cc(C)c(N3CCN(c4ccc(F)cc4)CC3)nc2c1,< 0.2 µg/mL

row,Structure (SMILES),solubility kinetic
1,CC(C)C1Cc2nc(Cl)c(C#N)cc2CO1 (configuration not stated),24.8 µg/mL
2,CN(C)CCO[C@@H](c1ccc(Cl)cc1)c1ccccn1.O=C(O)/C=C\C(=O)O,> 61 µg/mL
3,CCOC(=O)c1cnc(SCC(=O)OC)nc1N,> 40.7 µg/mL
4,COC(=O)Cc1c(O)ccn(CCc2c[nH]c3ccccc23)c1=O,> 49 µg/mL
5,CC(C)(C)c1ccc(S(=O)(=O)N2CCNC(=O)C2)cc1,42 µg/mL
6,CC(C)(C)c1ccc(C(=O)NC(=S)N2CCOCC2)cc1,> 46 µg/mL
7,Nc1nc(C23CC4CC(CC(C4)C2)C3)[nH]c(=O)n1,> 36.9 µg/mL
8,COc1cccc(C(=O)OCC(=O)NC23CC4CC(CC(C4)C2)C3)c1,19.8 µg/mL
9,COc1ccc(NC(=O)CC2CCCC2)cc1OC,> 39.5 µg/mL
10,CC(=O)c1c(C)[nH]c(C(=O)N2CCN(c3ccccn3)CC2)c1C,42.4 µg/mL
11,O=C(NCc1ccccc1)C(=O)Nc1nc(-c2ccccc2)cs1,< 0.2 µg/mL
12,O=C(CN1CCc2ccccc21)NC(=O)NC1CCCCC1,34.8 µg/mL
13,Cc1cc(NC(=O)c2c(-c3c(F)cccc3Cl)noc2C)no1,> 50.4 µg/mL
14,COc1ccc(CNC(=O)COC(=O)c2ccc(S(=O)(=O)N3CCOCC3)cc2)cc1,9.2 µg/mL
15,Fc1ccccc1CSCc1nc2ccccc2[nH]1,36.6 µg/mL
16,O=c1[nH]c(=S)n(C2CC2)c(O)c1C=NCCN1CCOCC1,> 48.7 µg/mL
17,c1ccc(-c2cc(N3CCCCC3)c3ccccc3n2)cc1,< 0.3 µg/mL
18,O=C(Cn1cc(C(F)(F)F)ccc1=O)OCC(=O)c1ccc[nH]1,> 49.2 µg/mL
19,Fc1ccc(NC(=S)Nc2cccc3ccccc23)cc1F,29.3 µg/mL
20,Cc1ccc(S(=O)(=O)N[C@H](C(=O)OCC(=O)NC(=O)NCc2ccco2)C(C)C)cc1,> 67.7 µg/mL
21,CCC1(CC)NC(=O)N(Cc2nc3ccccc3s2)C1=O,> 45.5 µg/mL
22,NS(=O)(=O)c1ccc(CNC(=S)NC2CCCC2)cc1,46.9 µg/mL
23,O=C(OCCN1C(=O)c2ccccc2C1=O)[C@@H]1CC(O)CN1S(=O)(=O)c1ccccc1[N+](=O)[O-] (some centres not stated),> 73.4 µg/mL
24,COc1cc2c(cc1OC)C(C)N(C(=O)Nc1cc(C)cc(C)c1)CC2 (configuration not stated),2.7 µg/mL

row,Structure (SMILES),solubility kinetic
1,O=[N+]([O-])c1ccc(OCC2CC(c3ccccc3)=NO2)cc1 (configuration not stated),< 0.3 µg/mL
2,COCCNc1nc(N)c([N+](=O)[O-])c(NC2CCCCC2)n1,7.2 µg/mL
3,CC1=CC(=C(C#N)C#N)C=C(C)N1CCN1CCNCC1,> 42.5 µg/mL
4,Cc1cc(Cl)n2c(nc3ccccc32)c1C#N,15.3 µg/mL
5,O=C(COc1ccc(Cl)cc1Cl)NCC1(N2CCOCC2)CCCCC1,1.9 µg/mL
6,CC(Sc1nc(-c2ccco2)nc2c1c(=O)n(C)c(=O)n2C)C(=O)O (configuration not stated),> 54.4 µg/mL
7,COC(=O)c1c(C)[nH]c(C(=O)C(C)OC(=O)C2CC2)c1C (configuration not stated),39.7 µg/mL
8,COC(=O)c1cnc(Nc2cccc(C(F)(F)F)c2)c([N+](=O)[O-])c1,< 0.2 µg/mL
9,COc1cc(C)c(NC(=O)c2cccc(S(=O)(=O)N3CCCC3)c2)cc1OC,32.5 µg/mL
10,CC(=O)Nc1ccc(NC(=O)Cc2ccc(-c3ccccc3)cc2)cc1,< 0.4 µg/mL
11,CC1CCC(N2CCNCC2)CC1.Cl (configuration not stated),> 32.8 µg/mL
12,O=C(O)c1ccn(CSc2cc(Cl)ccc2Cl)n1,> 45.5 µg/mL
13,COCCCNC(=O)c1ccc(CSCc2ccc(C)cc2)o1,49.8 µg/mL
14,Nc1ccc2nc(COc3ccccc3)[nH]c2c1,12.4 µg/mL
15,COCCNC(=O)C(NC(=O)C1CCCCC1)C12CC3CC(CC(C3)C1)C2 (configuration not stated),5.5 µg/mL
16,COc1cc(OC)cc(C(=O)Nc2cccc3nc(C)ccc23)c1,2.9 µg/mL
17,CC(=O)NC(=O)COC(=O)c1ccc2ncsc2c1,27.5 µg/mL
18,Nc1nc(Nc2ccccc2F)nc(N2CCOCC2)c1[N+](=O)[O-],8.2 µg/mL
19,COC(=O)CSc1nc2cc3c(cc2cc1C)OCO3,1.7 µg/mL
20,CCN(CC(=O)Nc1ccc(NC(C)=O)cc1)S(=O)(=O)/C=C/c1ccccc1,9.6 µg/mL
21,O=C(Nc1ccc2c(c1)CCC2)c1ccc(Cl)nc1,7.8 µg/mL
